The values that follow come from PubChem BioAssay (NCI).

Some test systems named below: TK-10 renal; OVCAR-5 ovarian; LOX IMVI melanoma; SN12C renal; HT29 colon; EKVX NSCLC; HOP-92 NSCLC; MOLT-4 leukemia; OVCAR-3 ovarian; NCI-H522 lung.
Holding throughout (experiment): growth of human tumour cells (NCI), 48 h

The structures appear in SMILES notation.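 Five concentrations, 48 hours, 96-well plates. GI50 = concentration required for 50% inhibition of growth. TGI: concentration producing complete growth inhibition.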 A value given as a limit tells only on which side of the number the result lay.

For the compound `O=[N+]([O-])c1ccccc1S(=O)(=O)c1ccccc1`, the TGI with TK-10 renal, with OVCAR-5 ovarian, with LOX IMVI melanoma, in the assay on SN12C renal, in the assay with HT29 colon and with EKVX NSCLC was above 100 µM each time. The TGI with HOP-92 NSCLC, in the assay with MOLT-4 leukemia and in the assay with OVCAR-3 ovarian was above 100 µM each time.

With `Cc1ccc(NC(=O)C(Cc2c[nH]c3ccccc23)NC(=O)Oc2ccccc2)cc1C` (stereo not given), the TGI is above 100 µM with NCI-H522 lung; 25.5 µM in the assay with TK-10 renal; above 100 µM in the assay with OVCAR-5 ovarian; above 100 µM in the assay with LOX IMVI melanoma; above 100 µM in the assay on SN12C renal; above 100 µM with HT29 colon. The TGI in the assay with EKVX NSCLC, in the assay on HOP-92 NSCLC, in the assay with MOLT-4 leukemia and in the assay on OVCAR-3 ovarian was above 100 µM in each case.

Consider `O=S(OC12CC3CC(CC(C3)C1)C2)c1cc(Cl)cc(Cl)c1OCc1ccccc1` (stereo not given), for which the TGI is 37.1 µM with NCI-H522 lung; above 100 µM in the assay on TK-10 renal; above 100 µM with OVCAR-5 ovarian; above 100 µM in the assay on LOX IMVI melanoma; above 100 µM in the assay on SN12C renal; above 100 µM in the assay on HT29 colon. The TGI in the assay with EKVX NSCLC, in the assay on MOLT-4 leukemia and in the assay with OVCAR-3 ovarian was above 100 µM throughout.

For `Cc1cn(C2CC(N)C(C(=O)NCC(=O)O)O2)c(=O)[nH]c1=O` (stereo not given), the TGI in the assay on NCI-H522 lung, with TK-10 renal, in the assay on OVCAR-5 ovarian, with LOX IMVI melanoma, in the assay on SN12C renal and in the assay with HT29 colon was above 100 µM in each case. The TGI in the assay on EKVX NSCLC, in the assay with HOP-92 NSCLC, in the assay on MOLT-4 leukemia and in the assay with OVCAR-3 ovarian was above 100 µM each time.

With `CC1(C)C(=O)c2ccccc2OC1N1CCN(C2Oc3ccccc3C(=O)C2(C)C)CC1` (stereo not given), the TGI with NCI-H522 lung, in the assay on TK-10 renal, in the assay on OVCAR-5 ovarian, in the assay with LOX IMVI melanoma, in the assay with SN12C renal and in the assay on HT29 colon was above 100 µM in each case. Besides, the TGI in the assay with EKVX NSCLC, with HOP-92 NSCLC, in the assay on MOLT-4 leukemia and in the assay with OVCAR-3 ovarian was above 100 µM throughout.

Consider `COc1ccc(-c2ccc(-c3ccc(C(=N)N)nc3)s2)cc1Cl`, for which the results for the GI50 in the assay with OVCAR-5 ovarian, with HOP-92 NSCLC and in the assay with OVCAR-3 ovarian were 1.86 µM, 1.63 µM and 1.83 µM, respectively. The TGI with OVCAR-5 ovarian was 3.32 µM; in the assay on HOP-92 NSCLC it was 3.41 µM; with OVCAR-3 ovarian it was 3.24 µM.

With `Nc1ccccc1.[C-]#[O+].[C-]#[O+].[C-]#[O+].[C-]#[O+].[C-]#[O+].[Cr]`, the GI50 in the assay with NCI-H522 lung was 2.94 µM; with TK-10 renal it was 4.83 µM; in the assay on OVCAR-5 ovarian, above 10 µM; in the assay on LOX IMVI melanoma, 3.15 µM; in the assay with SN12C renal, 3.9 µM; in the assay on HT29 colon it was above 10 µM. In addition, the GI50 was 9.33 µM with EKVX NSCLC, 3.26 µM with MOLT-4 leukemia and 3.18 µM in the assay on OVCAR-3 ovarian. The TGI in the assay on NCI-H522 lung is above 10 µM; in the assay with TK-10 renal, above 10 µM; in the assay on OVCAR-5 ovarian, above 10 µM; in the assay with LOX IMVI melanoma, 8.56 µM; in the assay on SN12C renal it was above 10 µM; in the assay on HT29 colon it was above 10 µM. Besides, the TGI with EKVX NSCLC, in the assay with MOLT-4 leukemia and in the assay with OVCAR-3 ovarian was above 10 µM in each case.

As for `COc1cc2oc(=O)cc(C)c2cc1O`, the TGI with NCI-H522 lung, in the assay on TK-10 renal, in the assay on OVCAR-5 ovarian, with LOX IMVI melanoma, in the assay on SN12C renal and in the assay on HT29 colon was above 100 µM throughout. Also, the TGI in the assay on EKVX NSCLC, in the assay on HOP-92 NSCLC, with MOLT-4 leukemia and with OVCAR-3 ovarian was above 100 µM in each case.

Turning to `C=CCN1C(=O)/C(=C/c2ccco2)N=C1SC1OC(COC(C)=O)C(OC(C)=O)C(OC(C)=O)C1OC(C)=O` (stereo not given), the TGI in the assay with NCI-H522 lung was 51.7 µM; in the assay on TK-10 renal, above 100 µM; in the assay with OVCAR-5 ovarian, above 100 µM; in the assay with LOX IMVI melanoma it was above 100 µM; with EKVX NSCLC, above 100 µM; in the assay on HOP-92 NSCLC, above 100 µM. The TGI with MOLT-4 leukemia and in the assay on OVCAR-3 ovarian was above 100 µM each time.
